Reference: patent publication US20020147230A1, “Aminal Diones as potassium channel openers” (priority 2001, published 2002)
Read-outs that look alike come from different tables or passages of the source.

Experiments:
[1] = tested on: primary cultured guinea-pig urinary bladder (GPB) cells; experiment: Membrane hyperpolarization (MHP) assay, DiBAC(4)3 / FLIPR; format: cell-based; details: for EC50: membrane hyperpolarization in guinea-pig bladder cells
Method: Compounds were evaluated for potassium channel opening activity using primary cultured guinea-pig urinary bladder (GPB) cells.
For the preparation of urinary bladder smooth muscle cells, urinary bladders were removed from male guinea-pigs (Hartley, Charles River, Wilmington, Mass.) weighing 300-400 g and placed in ice-cold Ca^2+-free Krebs solution (composition, mM: KCl, 2.7; KH2PO4, 1.5; NaCl, 75; Na2HPO4, 9.6; Na2HPO4.7H2O, 8; MgSO4, 2; glucose, 5; HEPES, 10; pH 7.4). Cells were isolated by enzymatic dissociation as previously described with minor modifications (Klockner and Isenberg, Pflugers Arch. (1985), 405, 329-339), hereby incorporated by reference. The bladder was cut into small sections and incubated in 5 mL of the Kreb's solution containing 1 mg/mL collagenase (Sigma, St. Louis, Mont.) and 0.2 mg/mL pronase (Calbiochem, La Jolla, Calif.) with continuous stirring in a cell incubator for 30 minutes. The mixture was then centrifuged at 1300× g for 5 minutes, and the pellet resuspended in Dulbecco's PBS (GIBCO, Gaithersburg, Md.) and recentrifuged to remove residual enzyme. The cell pellet was resuspended in 5 mL growth media (composition: Dulbecco's modified Eagle's medium supplemented with 10% fetal bovine serum, 100 units/mL penicillin, 100 units/mL streptomycin and […] amphotericin B) and further dissociated by pipetting the suspension through a flame-polished Pasteur pipette and passing it through a polypropylene mesh membrane (Spectrum, Houston, Tex.). The cell density was adjusted to 100,000 cells/mL by resuspension in growth media. Cells were plated in clear-bottomed black 96-well plates (Packard) for membrane potential studies at a density of 20,000 cells/well and maintained in a cell incubator with 90% air:10% CO2 until confluent. Cells were confirmed to be of smooth muscle type by cytoskeletal staining using a monoclonal mouse anti human-α-smooth muscle actin (Biomeda, Foster City, Calif.).
Functional activity at potassium channels was measured by evaluating changes in membrane potential using the bis-oxonol dye DiBAC(4)3 (Molecular Probes) in a 96-well cell-based kinetic assay system, Fluorescent Imaging Plate Reader (FLIPR) (K. S. Schroeder et al., J. Biomed. Screen., v. 1 pp. 7581 (1996)), hereby incorporated by reference. DiBAC(4)3 is an anionic potentiometric probe which partitions between cells and extracellular solution in a membrane potential-dependent manner. With increasing membrane potential (for example, K^+ depolarization), the probe further partitions into the cell; this is measured as an increase in fluorescence due to dye interaction with intracellular lipids and proteins. Conversely, decreasing membrane potential (hyperpolarization by potassium channel openers) evokes a decrease in fluorescence.
Confluent guinea-pig urinary bladder cells cultured in black clear-bottomed 96-well plates were rinsed twice with […] assay buffer (composition, mM: HEPES, 20; NaCl, 120; KCl, 2; CaCl2, 2; MgCl2, 1; glucose, 5; pH 7.4 at 25° C.) containing 5 μM DiBAC(4)3 and incubated with […] of the buffer in a cell incubator for 30 minutes at 37° C. to ensure dye distribution across the membrane. After recording the baseline fluorescence for 5 minutes, the reference or test compounds, prepared at 10 times the concentration in the assay buffer, were added directly to the wells. Changes in fluorescence were monitored for an additional 25 minutes. Hyperpolarization responses were corrected for any background noise and were normalized to the response observed with 10 μM of the reference compound P1075 (assigned as 100%), a potent opener of smooth muscle KATP channels (Quast et al., Mol. Pharmacol., v. 43 pp. 474-481 (1993)).
Routinely, five concentrations of P1075 or test compounds (log or half-log dilutions) were evaluated and the maximal steady-state hyperpolarization values (expressed as % relative to P1075) plotted as a function of concentration. […]

[2] = tested on: tissue strips obtained from Landrace pig bladders; experiment: Functional potassium channel opening activity in isolated bladder strips (field-stimulated twitch); details: for EC50: amount causing 50% of the agent's maximal response, read-out: ED50 (the source's name)
Method: Compounds were evaluated for functional potassium channel opening activity using tissue strips obtained from Landrace pig bladders.
Landrace pig bladders were obtained from female Landrace pigs of 930 kg. Landrace pigs were euthanized with an intraperitoneal injection of pentobarbital solution, Somlethal®, J. A. Webster Inc., Sterling Mass. The entire bladder was removed and immediately placed into Krebs Ringer bicarbonate solution (composition, mM: NaCl, 120; NaHCO3, 20; dextrose, 11; KCl, 4.7; CaCl2, 2.5; MgSO4, 1.5; KH2PO4, 1.2; K2EDTA, 0.01, equilibrated with 5% CO2/95% O2pH 7.4 at 37° C.). Propranolol (0.004 mM) was included in all of the assays to block β-adrenoceptors. The trigonal and dome portions were discarded. Strips 3-5 mm wide and 20 mm long were prepared from the remaining tissue cut in a circular fashion. The mucosal layer was removed. One end was fixed to a stationary glass rod and the other to a Grass FT03 transducer at a basal preload of 1.0 gram. Two parallel platinum electrodes were included in the stationary glass rod to provide field stimulation of 0.05 Hz, 0.5 milli-seconds at 20 volts. This low frequency stimulation produced a stable twitch response of 100-500 centigrams. Tissues were allowed to equilibrate for at least 60 minutes and primed with 80 mM KCl. A control concentration response curve (cumulative) was generated for each tissue using the potassium channel opener P1075 as the control agonist. […] After a 60 minute rinsing period, a concentration response curve (cumulative) was generated for the test agonist in the same fashion as that used for the control agonist P1075. The maximal efficacy of each compound (expressed as % relative to P1075) is reported. The amount of agent necessary to cause 50% of the agent's maximal response (ED50) was calculated using “ALLFIT” (DeLean et al., Am. J. Physiol., 235, E97 (1980)), hereby incorporated by reference. Agonist potencies were also expressed as an index relative to P1075. The index was calculated by dividing the ED50 for P1075 by the ED50 for the test agonist in a given tissue. Each tissue was used for only one test agonist, and the indices obtained from each tissue were averaged to provide an average index of potency.

[3] = Sus scrofa, Landrace pig bladder strips
[4] = Sus scrofa, maximal efficacy relative to P1075, Landrace pig bladder strips, field stimulation 0.05 Hz

| EC50 ([1]; Cavia porcellus) | EC50 [2, 3] | Structure (SMILES) | Emax [2, 4] | also measured |
| --- | --- | --- | --- | --- |
| – | – | CC(C)(Cc1ccccc1)C(NC(=O)c1ccc(Cl)cc1)Nc1c(Nc2cccnc2)c(=O)c1=O (stereo not drawn) [Example 18] | – | Maximal Response (% P1075) ([1]; maximal steady-state hyperpolarization, normalized to 10 μM P1075 (100%), GPB cells): 97 % P1075; EC50 [1]: 0.51 µM; Index ([2]; ED50 for P1075 divided by ED50 for the test agonist in a given tissue, averaged): 0.055; EC50 ([2]; Landrace pig bladder strips): 17 µM; Efficacy (% P1075) ([2]; maximal efficacy relative to P1075, Landrace pig bladder strips, field stimulation 0.05 Hz): 62 % P1075 |
| – | – | CC(C)(C)C(NC(=O)c1ccc(I)cc1)NS(=O)(=O)Nc1cccnc1 (stereo not drawn) [Example 34, N-(2,2-dimethyl-1-{[(3-pyridinylamino)sulfonyl]amino}propyl)-4iodobenzamide] | – | melting point: 177 to 178 °C |
| 0.15 µM | 19 µM | Cc1ccc(C(=O)NC(Nc2c(Nc3cccnc3)c(=O)c2=O)C(C)(C)C)cc1 (stereo not drawn) [Example 1, N-(1-{[3,4-dioxo-2-(3-pyridinylamino)-1-cyclobuten-1-yl]amino}-2,2-dimethylpropyl)-4-methylbenzamide] | 54% | – |
| 0.16 µM | 6.9 µM | CC(C)(C)C(NC(=O)c1ccc(Cl)cc1)Nc1c(Nc2cccnc2)c(=O)c1=O (stereo not drawn) [Example 2, 4-chloro-N-(1-{[3,4-dioxo-2-(3-pyridinylamino)-1-cyclobuten-1-yl]amino}-2,2-dimethylpropyl)benzamide] | 79% | – |
